Values after ≈ are worked out from the molar mass of the structure shown.
How the values were obtained:
Assay in all cases: in vitro antibacterial activity, minimal inhibitory concentration
Type in all cases: cell-based
Staph. aureus UC-76 = conditions: Staph. aureus UC-76, in vitro; for MIC: Staphylococcus aureus, UC76
Excerpt: (§1) The compounds of the invention are new chemical compounds that are used as pharmacological agents and especially as broad spectrum antibacterial agents. They are active in vitro against strains of both gram-positive and gram-negative bacteria.
(§2) Minimal Inhibitory Concentration (μg/ml)

Prot. vulg. = system: Prot. vulg.
Excerpt: as §1, §2

Entero. cloacae = conditions: for MIC: Enterobacter cloacae
Excerpt: as §1, §2

Strep. fec. = system: Strep. fec.
Excerpt: as §1, §2

Klebs. pneu. = system: Klebs. pneu.
Excerpt: as §1, §2

E. coli Vogel = conditions: for MIC: Escherichia coli
Excerpt: as §1, §2

Serr. marces. = system: Serr. marces.
Excerpt: as §1, §2

Staph. aureus S18733 = conditions: for MIC: Staphylococcus aureus
Excerpt: as §1, §2

E. coli Brig = conditions: for MIC: Escherichia coli
Excerpt: as §1, §2

Pseudomonas BRK 12-4-4 = conditions: Pseudomonas BRK 12-4-4, in vitro; for MIC: BRK1244
Excerpt: as §1, §2

Pseudomonas UI 18 = conditions: UI18; Pseudomonas UI 18, in vitro
Excerpt: as §1, §2

Pseudomonas #28 = conditions: Pseudomonas #28, in vitro; read-out: Minimal Inhibitory Concentration
Excerpt: as §1, §2

## CC(=O)N1C[C@H](O)C[C@H]1C(=O)Nc1ccc(-c2ncc(C(=O)N[C@@H](C(=O)NC3C(=O)N4C(C(=O)O)=C(CSc5nnnn5CC(=O)O)CS[C@H]34)c3ccccc3)c(O)n2)cc1 (stereo partly drawn) [Example 36, N-[2-[4-(N-Acetyl-L-hydroxyprolylamino)phenyl]-4-hydroxy-5-pyrimidinylcarbonyl]-7-[D-2-amino-2-phenylacetamido]-3-[[(1-carboxymethyl-1H-tetrazol-5-yl)thio]methyl]-3-cephem-4-carboxylic acid]
Staph. aureus UC-76
  Minimal Inhibitory Concentration: 12.5 µg/mL
Prot. vulg.
  Minimal Inhibitory Concentration: 6.3 µg/mL
Entero. cloacae
  Minimal Inhibitory Concentration: 12.5 µg/mL
Strep. fec.
  Minimal Inhibitory Concentration: > 50 µg/mL
Klebs. pneu.
  Minimal Inhibitory Concentration: 6.3 µg/mL
E. coli Vogel
  Minimal Inhibitory Concentration: 6.3 µg/mL
Serr. marces.
  Minimal Inhibitory Concentration: 50 µg/mL
Staph. aureus S18733
  Minimal Inhibitory Concentration: 25 µg/mL
E. coli Brig
  Minimal Inhibitory Concentration: 12.5 µg/mL
Pseudomonas BRK 12-4-4
  Minimal Inhibitory Concentration: 12.5 µg/mL

## CC(=O)OCC1=C(C(=O)O)N2C(=O)[C@@H](NC(=O)[C@H](NC(=O)c3cnc(-c4ccc(NC(=O)[C@@H](C)N)cc4)nc3O)c3ccccc3)[C@H]2SC1 [Example 18, N-[2-[4-(D-Alanylamino)phenyl]-4-hydroxy-5-pyrimidinylcarbonyl]-7-[D-2-amino-2-phenylacetamido]-3-acetoxymethyl-3cephem-4-carboxylic acid]
Staph. aureus UC-76
  MIC: 1.6 µg/mL (≈ 2.32 µM)
Prot. vulg.
  MIC: 25 µg/mL (≈ 36.2 µM)
Entero. cloacae
  MIC: 50 µg/mL (≈ 72.5 µM)
Strep. fec.
  MIC: 25 µg/mL (≈ 36.2 µM)
Pseudomonas UI 18
  MIC: 1.6 µg/mL (≈ 2.32 µM)
Klebs. pneu.
  MIC: 25 µg/mL (≈ 36.2 µM)
E. coli Vogel
  MIC: 12.5 µg/mL (≈ 18.1 µM)
Pseudomonas #28
  MIC: 3.1 µg/mL (≈ 4.49 µM)
Serr. marces.
  MIC: > 50 µg/mL
Staph. aureus S18733
  MIC: 6.3 µg/mL (≈ 9.13 µM)
E. coli Brig
  MIC: 50 µg/mL (≈ 72.5 µM)
Pseudomonas BRK 12-4-4
  MIC: 6.3 µg/mL (≈ 9.13 µM)

## CC(=O)N[C@H](C)C(=O)Nc1ccc(-c2ncc(C(=O)N[C@@H](C(=O)N[C@@H]3C(=O)N4C(C(=O)O)=C(COC(N)=O)CS[C@H]34)c3ccccc3)c(O)n2)cc1 [Example 21]
Staph. aureus UC-76
  MIC: 0.8 µg/mL (≈ 1.09 µM)
Prot. vulg.
  MIC: 12.5 µg/mL (≈ 17.1 µM)
Entero. cloacae
  MIC: 25 µg/mL (≈ 34.1 µM)
Strep. fec.
  MIC: 25 µg/mL (≈ 34.1 µM)
Pseudomonas UI 18
  MIC: 12.5 µg/mL (≈ 17.1 µM)
Klebs. pneu.
  MIC: 12.5 µg/mL (≈ 17.1 µM)
E. coli Vogel
  MIC: 12.5 µg/mL (≈ 17.1 µM)
Pseudomonas #28
  MIC: 3.1 µg/mL (≈ 4.23 µM)
Serr. marces.
  MIC: > 50 µg/mL
Staph. aureus S18733
  MIC: 1.6 µg/mL (≈ 2.18 µM)
E. coli Brig
  MIC: 25 µg/mL (≈ 34.1 µM)
Pseudomonas BRK 12-4-4
  MIC: 12.5 µg/mL (≈ 17.1 µM)

## CC(=O)NC(CC(C)C)C(=O)Nc1ccc(-c2ncc(C(=O)N[C@@H](C(=O)N[C@@H]3C(=O)N4C(C(=O)O)=C(COC(C)=O)CS[C@H]34)c3ccccc3)c(O)n2)cc1 (mixture of isomers) [Example 4, N-[2-[4-(N-Acetyl-DL-leucylamino)phenyl]-4-hydroxy-5-pyrimidinylcarbonyl]-7-[D-2-amino-2-phenylacetamido]-3-acetoxymethyl-3-cephem-4-carboxylic acid]
Staph. aureus UC-76
  MIC: 1.6 µg/mL
Prot. vulg.
  MIC: 25 µg/mL
Entero. cloacae
  MIC: 25 µg/mL
Strep. fec.
  MIC: 50 µg/mL
Pseudomonas UI 18
  MIC: 12.5 µg/mL
Klebs. pneu.
  MIC: 25 µg/mL
E. coli Vogel
  MIC: 6.3 µg/mL
Pseudomonas #28
  MIC: 12.5 µg/mL
Serr. marces.
  MIC: > 50 µg/mL
Staph. aureus S18733
  MIC: 6.3 µg/mL
E. coli Brig
  MIC: 25 µg/mL
Pseudomonas BRK 12-4-4
  MIC: 12.5 µg/mL

## CC(=O)N[C@H](C)C(=O)Nc1ccc(-c2ncc(C(=O)N[C@@H](C(=O)NC3C(=O)N4C(C(=O)O)=C(CSc5nnnn5C)CSC34)c3ccccc3)c(O)n2)cc1 (stereo partly drawn) [Example 25, N-[2-[4-(N-Acetyl-D-alanylamino)phenyl]-4-hydroxy-5-pyrimidinylcarbonyl]-7-[D-2-amino-2-phenylacetamido]-3-[[(1-methyl-1H-tetrazol-5-yl)thio]methyl]-3-cephem-4-carboxylic acid]
Staph. aureus UC-76
  MIC: 1.6 µg/mL (≈ 2.03 µM)
Prot. vulg.
  MIC: 12.5 µg/mL (≈ 15.9 µM)
Entero. cloacae
  MIC: 6.3 µg/mL (≈ 8 µM)
Strep. fec.
  MIC: > 50 µg/mL
Pseudomonas UI 18
  MIC: 6.3 µg/mL (≈ 8 µM)
Klebs. pneu.
  MIC: 3.1 µg/mL (≈ 3.93 µM)
E. coli Vogel
  MIC: 3.1 µg/mL (≈ 3.93 µM)
Pseudomonas #28
  MIC: 3.1 µg/mL (≈ 3.93 µM)
Serr. marces.
  MIC: 50 µg/mL (≈ 63.5 µM)
Staph. aureus S18733
  MIC: 6.3 µg/mL (≈ 8 µM)
E. coli Brig
  MIC: 6.3 µg/mL (≈ 8 µM)
Pseudomonas BRK 12-4-4
  MIC: 6.3 µg/mL (≈ 8 µM)

## CC(=O)N[C@H](C)C(=O)Nc1ccc(-c2ncc(C(=O)N[C@@H](C(=O)N[C@@H]3C(=O)N4C(C(=O)O)=C(COC(C)=O)CS[C@H]34)c3ccc(O)cc3)c(O)n2)cc1 [Example 11, N-[2-[4-(N-Acetyl-D-alanylamino)phenyl]-4-hydroxy-5-pyrimidinylcarbonyl]-7-[D-2-amino-2-(4-hydroxyphenyl)-acetamido]-3-acetoxymethyl-3-cephem-4-carboxylic acid]
Staph. aureus UC-76
  MIC: 6.3 µg/mL (≈ 8.43 µM)
Prot. vulg.
  MIC: 12.5 µg/mL (≈ 16.7 µM)
Entero. cloacae
  MIC: 50 µg/mL (≈ 66.9 µM)
Strep. fec.
  MIC: 50 µg/mL (≈ 66.9 µM)
Pseudomonas UI 18
  MIC: 6.3 µg/mL (≈ 8.43 µM)
Klebs. pneu.
  MIC: 25 µg/mL (≈ 33.4 µM)
E. coli Vogel
  MIC: 6.3 µg/mL (≈ 8.43 µM)
Pseudomonas #28
  MIC: 3.1 µg/mL (≈ 4.15 µM)
Serr. marces.
  MIC: > 50 µg/mL
Staph. aureus S18733
  MIC: 25 µg/mL (≈ 33.4 µM)
E. coli Brig
  MIC: 50 µg/mL (≈ 66.9 µM)
Pseudomonas BRK 12-4-4
  MIC: 6.3 µg/mL (≈ 8.43 µM)

## CC(=O)NCCCCC(NC(C)=O)C(=O)Nc1ccc(-c2ncc(C(=O)N[C@@H](C(=O)N[C@@H]3C(=O)N4C(C(=O)O)=C(COC(C)=O)CS[C@H]34)c3ccccc3)c(O)n2)cc1 (mixture of isomers) [Example 12, N-[2-[4-(N^α,N^ω -Diacetyl-DL-lysylamino)phenyl]-4-hydroxy-5-pyrimidinylcarbonyl]-7-[D-2-amino-2-phenylacetamido]-3-acetoxymethyl-3-cephem-4carboxylic acid]
Staph. aureus UC-76
  MIC: 1.6 µg/mL
Prot. vulg.
  MIC: 50 µg/mL
Entero. cloacae
  MIC: 25 µg/mL
Strep. fec.
  MIC: 50 µg/mL
Pseudomonas UI 18
  MIC: 6.3 µg/mL
Klebs. pneu.
  MIC: 25 µg/mL
E. coli Vogel
  MIC: 6.3 µg/mL
Pseudomonas #28
  MIC: 6.3 µg/mL
Serr. marces.
  MIC: > 50 µg/mL
Staph. aureus S18733
  MIC: 6.3 µg/mL
E. coli Brig
  MIC: 50 µg/mL
Pseudomonas BRK 12-4-4
  MIC: 12.5 µg/mL

Reference: patent US4311699A, “Aminoacid derivatives of cephalosporin compounds” (priority 1980, dated 1982)
